Test results: patent US12492181B2, “Gem-disubstituted piperidine melanocortin subtype-2 receptor (MC2R) antagonists and uses thereof” (Crinetics Pharmaceuticals, Inc., priority 2019, dated 2025)
pKi: −log10 of the molar value.

Target: T1, hMC2 receptor (crude hMC2R membranes from CRE-bla-CHO-K1 cells stably expressing hMC2 receptor and hMRAP accessory protein) (Homo sapiens, UniProt Q01718)
T1 construct: crude membrane fractions
Test: hMC2 membrane binding assay ([125I]ACTH (1-39) Tyr23, SPA)
Details: displacement of 0.2 nM [125I]ACTH (1-39) Tyr23 from hMC2R membranes, 1.5 hours at room temperature; read-out: MC2R binding potency
Summary of the method: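 Crude membranes from CRE-bla-CHO-K1 cells stably co-expressing hMC2R and hMRAP, premixed with WGA PVT SPA beads in pH 7.4 HEPES buffer (5 mM MgCl2, 1 mM CaCl2, 0.20% BSA, protease inhibitors). Compounds compete with [125I]ACTH(1-39) Tyr23, read by scintillation. Ki from non-linear regression.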

T1 sequence (Q01718 whole entry): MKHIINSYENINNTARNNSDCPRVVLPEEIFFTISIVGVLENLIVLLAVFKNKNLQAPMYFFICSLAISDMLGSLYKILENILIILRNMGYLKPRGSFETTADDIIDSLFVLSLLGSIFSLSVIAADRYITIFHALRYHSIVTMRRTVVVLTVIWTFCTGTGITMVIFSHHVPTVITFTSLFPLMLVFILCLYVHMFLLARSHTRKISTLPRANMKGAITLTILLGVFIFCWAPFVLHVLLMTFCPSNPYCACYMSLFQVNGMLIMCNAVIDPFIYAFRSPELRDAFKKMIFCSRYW
T1 sequence (Q8TCY5 whole entry partner): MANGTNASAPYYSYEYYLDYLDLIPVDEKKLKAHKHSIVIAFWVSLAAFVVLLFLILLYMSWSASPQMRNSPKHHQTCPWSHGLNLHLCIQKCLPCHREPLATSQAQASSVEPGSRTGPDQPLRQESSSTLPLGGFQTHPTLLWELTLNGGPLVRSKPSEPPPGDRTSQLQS

Row | Compound | pKi
1 | CCn1nccc1-c1ccc(C2(C(=O)N[C@@H]3CCN(C)C3)CCN(c3ccc(C(F)(F)F)cc3C#N)CC2)cn1 [Compound 1-62, 1-[2-cyano-4-(trifluoromethyl)phenyl]-4-[6-(1-ethyl-1H-pyrazol-5-yl)pyridin-3-yl]-N-[(3R)-1-methylpyrrolidin-3-yl]piperidine-4-carboxamide] | > 8.00
2 | CCOc1ncccc1-c1ccc(C2(C(=O)N[C@@H]3CCN(C)C3)CCN(c3ccc(C(F)(F)F)cc3C#N)CC2)cn1 [Compound 1-9, 1-[2-cyano-4-(trifluoromethyl)phenyl]-4-{2′-ethoxy-[2,3′-bipyridin]-5-yl}-N-[(3R)-1-methylpyrrolidin-3-yl]piperidine-4-carboxamide] | > 8.00
3 | CNC[C@H](C)NC(=O)C1(c2ccc(-c3cccn3C)nc2)CCN(c2ccc(C(F)(F)F)cc2F)CC1 [Compound 1-298, 1-[2-fluoro-4-(trifluoromethyl)phenyl]-4-[6-(1-methyl-1H-pyrrol-2-yl)pyridin-3-yl]-N-[(2S)-1-(methylamino)propan-2-yl]piperidine-4-carboxamide] | > 8.00
4 | Cn1cccc1-c1ccc(C2(C(=O)NC34CCN(CC3)C4)CCN(c3ccc(C(F)(F)F)cc3C#N)CC2)cn1 [Compound 1-221, N-{1-azabicyclo[2.2.1]heptan-4-yl}-1-[2-cyano-4-(trifluoromethyl)phenyl]-4-[6-(1-methyl-1H-pyrrol-2-yl)pyridin-3-yl]piperidine-4-carboxamide] | 7.00 to 8.00
5 | CCOc1ncccc1-c1ccc(C2(NC(=O)CCN)CCN(c3ccc(C(F)(F)F)cc3C#N)CC2)cc1 [Compound 2-3, 3-amino-N-{1-[2-cyano-4-(trifluoromethyl)phenyl]-4-[4-(2-ethoxypyridin-3-yl)phenyl]piperidin-4-yl}propanamide] | 7.00 to 8.00
6 | CCOc1ncccc1-c1ccc(C2(C(=O)N[C@H]3CCN(C)C3)CCN(c3ncc(C(F)(F)F)cc3C#N)CC2)cn1 [Compound 1-42, 1-[3-cyano-5-(trifluoromethyl)pyridin-2-yl]-4-{2′-ethoxy-[2,3′-bipyridin]-5-yl}-N-[(3S)-1-methylpyrrolidin-3-yl]piperidine-4-carboxamide] | > 8.00
7 | COc1ccccc1-c1ccc(C2(C(=O)N[C@@H]3CNC[C@@H]3F)CCN(c3ccc(C(F)(F)F)cc3C#N)CC2)cn1 [Compound 1-237, 1-[2-cyano-4-(trifluoromethyl)phenyl]-N-[(3R,4S)-4-fluoropyrrolidin-3-yl]-4-[6-(2-methoxyphenyl)pyridin-3-yl]piperidine-4-carboxamide] | > 8.00
8 | COc1ccccc1-c1ncc(C2(NC(=O)O[C@H]3CCN(C)C3)CCN(c3ccc(C(F)(F)F)cc3C#N)CC2)cc1F [Compound 2-49, (3S)-1-methylpyrrolidin-3-yl N-{1-[2-cyano-4-(trifluoromethyl)phenyl]-4-[5-fluoro-6-(2-methoxyphenyl)pyridin-3-yl]piperidin-4-yl}carbamate] | > 8.00
9 | COc1ccccc1-c1ccc(C2(C(=O)NC[C@@H]3CCN3C)CCN(c3ccc(C(F)(F)F)cc3C#N)CC2)cn1 [Compound 1-217, 1-[2-cyano-4-(trifluoromethyl)phenyl]-4-[6-(2-methoxyphenyl)pyridine-3-yl]-N-{[(2S)-1-methylazetidin-2-yl]methyl}piperidine-4-carboxamide] | > 8.00
10 | COc1ccccc1-c1ccc(C2(C(=O)N[C@H]3CCN(C)C3)CCN(c3ccc(C(F)(F)F)cc3C#N)CC2)nn1 [Compound 1-183, 1-[2-cyano-4-(trifluoromethyl)phenyl]-4-[6-(2-methoxyphenyl)pyridazin-3-yl]-N-[(3S)-1-methylpyrrolidin-3-yl]piperidine-4-carboxamide] | > 8.00
11 | CCOc1ncccc1-c1ccc(C2(NC(=O)[C@H]3CCNC3)CCN(c3ccc(C(F)(F)F)cc3C#N)CC2)cn1 [Compound 2-8, (3S)—N-{1-[2-cyano-4-(trifluoromethyl)phenyl]-4-{2′-ethoxy-[2,3′-bipyridin]-5-yl}piperidin-4-yl}pyrrolidine-3-carboxamide] | > 8.00
12 | CCOc1ncccc1-c1ccc(C2(C(=O)N[C@H]3CCN(C)C3)CCN(c3ccc(C(F)(F)F)cc3C#N)CC2)nn1 [Compound 1-56, 1-[2-cyano-4-(trifluoromethyl)phenyl]-4-[6-(2-ethoxypyridin-3-yl)pyridazin-3-yl]-N-[(3S)-1-methylpyrrolidin-3-yl]piperidine-4-carboxamide] | > 8.00
13 | CN1CC[C@H](NC(=O)C2(c3ccc(-c4cccn4C)nn3)CCN(c3ccc(Cl)cc3C#N)CC2)C1 [Compound 1-170, 1-(4-chloro-2-cyanophenyl)-4-[6-(1-methyl-1H-pyrrol-2-yl)pyridazin-3-yl]-N-[(3S)-1-methylpyrrolidin-3-yl]piperidine-4-carboxamide] | > 8.00
14 | COc1ccccc1-c1ncc(C2(C(=O)NCCN(C)C)CCN(c3ccc(C(F)(F)F)cc3F)CC2)cc1F [Compound 1-285, N-[2-(dimethylamino)ethyl]-1-[2-fluoro-4-(trifluoromethyl)phenyl]-4-[5-fluoro-6-(2-methoxyphenyl)pyridin-3-yl]piperidine-4-carboxamide] | > 8.00
15 | CN1CC[C@@H](NC(=O)C2(c3ccc(-c4ccccc4C#N)nc3)CCN(c3ccc(C(F)(F)F)cc3C#N)CC2)C1 [Compound 1-78, 1-[2-cyano-4-(trifluoromethyl)phenyl]-4-[6-(2-cyanophenyl)pyridin-3-yl]-N-[(3R)-1-methylpyrrolidin-3-yl]piperidine-4-carboxamide] | > 8.00
16 | COc1ncccc1-c1ccc(C2(C(=O)N[C@@H](C)CN(C)C)CCN(c3ccc(C(F)(F)F)cc3Cl)CC2)cn1 [Compound 1-296, 1-[2-chloro-4-(trifluoromethyl)phenyl]-N-[(2S)-1-(dimethylamino)propan-2-yl]-4-{2′-methoxy-[2,3′-bipyridin]-5-yl}piperidine-4-carboxamide] | > 8.00
17 | CNCCNC(=O)C1(c2ccc(-c3ccccc3OC)nc2)CCN(c2ccc(C(F)(F)F)cc2C#N)CC1 [Compound 1-214, 1-[2-cyano-4-(trifluoromethyl)phenyl]-4-[6-(2-methoxyphenyl)pyridin-3-yl]-N-[2-(methylamino)ethyl]piperidine-4-carboxamide] | > 8.00
18 | Cn1cccc1-c1ccc(C2(C(=O)N[C@H]3C[C@@H](N)C3)CCN(c3ccc(C(F)(F)F)cc3C#N)CC2)cn1 [Compound 1-233, 1-[2-cyano-4-(trifluoromethyl)phenyl]-4-[6-(1-methyl-1H-pyrrol-2-yl)pyridin-3-yl]-N-[(1S,3S)-3-aminocyclobutyl]piperidine-4-carboxamide] | 7.00 to 8.00
19 | Cn1cccc1-c1ccc(C2(C(=O)NC[C@@H]3CCN3)CCN(c3ccc(C(F)(F)F)cc3C#N)CC2)cn1 [Compound 1-235, N-{[(2S)-azetidin-2-yl]methyl}-1-[2-cyano-4-(trifluoromethyl)phenyl]-4-[6-(1-methyl-1H-pyrrol-2-yl)pyridin-3-yl]piperidine-4-carboxamide] | 7.00 to 8.00
20 | CCOc1ncccc1-c1ccc(C2(C(=O)NCCNC)CCN(c3ccc(C(F)(F)F)cc3C#N)CC2)cn1 [Compound 1-14, 1-[2-cyano-4-(trifluoromethyl)phenyl]-4-{2′-ethoxy-[2,3′-bipyridin]-5-yl}-N-[2-(methylamino)ethyl]piperidine-4-carboxamide] | > 8.00
